Reference: patent US12171769B2, “Methods, compositions, and kits for treating and/or preventing a side effect associated with radiation and/or chemotherapy exposure” (BioMimetix JV, LLC, priority 2017, dated 2024)
Like-named read-outs stand apart in the source and are kept apart here.

Legend:
platelet count = test system: platelet count
Method: (§1) Four different loading doses were tested, which were: 7, 14, 28 and 42 mg, and the maintenance doses were half of the respective loading dose. The loading dose was administered prior to chemoradiation, and for the duration of treatment the respective maintenance doses were administered twice a week (i.e., a patient administered a 7 mg loading dose received two separate maintenance doses of 3.5 mg each week for 8 weeks.) The primary focus of this study is to determine the maximum tolerated dose of four dose levels. […] All subjects have a diagnosis of glioblastoma (WHO grade IV) and mean age is 62.7 years (range 54 years to 80 years).
In patients receiving temozolomide the standard of care is to stop therapy for patients developing a platelet count below 100,000.

[1] = TMZ in combination with RT; cited from earlier work
[2] = administered orally on an empty stomach; cited from earlier work
[3] = stored at 27° C.; cited from earlier work
xerostomia = details: 11 weeks post-RT (9 Gy); 2/1 mg/kg MnBuOE; vs unirradiated control
Method: Xerostomia quantification by stimulating saliva production: Mice were injected intraperitoneally with 3 μg carbomylcholine chloride (Sigma) dissolved in sterile phosphate-buffered saline. Salivation began 2 minutes after injection. Saliva was collected via pipette for 4 minutes. The volume was measured gravimetrically, assuming a density of 1 g/mL.

GSH/GSSG = details: MnBuOE 0.2 mg/kg 24 hours prior to RT (9 Gy); 24 hours post-RT
Method: (§2) MnBuOE synthesis and administration: MnBuOE was synthesized as previously described. […] Mouse injections were administered subcutaneously, with MnBuOE dissolved in sterile saline. Mice received an initial dose of 0.2, 0.6, or 2.0 mg/kg, followed by three times per week (t.i.w.) maintenance doses of one-half of the loading dose (i.e., 0.1, 0.3, or 1.0 mg/kg, respectively) (termed 2/1, 0.6/0.3 and 0.2/0.1 dosing schedules).

[4] = test system: FaDu (human pharyngeal carcinoma) cells
Method: For tumor control studies, female nu/nu mice were obtained from the Duke University Breeding Facility. Mice were group housed in a barrier facility and allowed to acclimate to their new environment for at least one week before experiments.
Tumor growth delay study: FaDu (human pharyngeal carcinoma) cells were obtained from the Duke University Cell Culture facility and were confirmed to be free of mycoplasma and known rodent pathogens. Cells were grown in Dulbecco's modified Eagle's medium with 10% fetal bovine serum. Mice were injected s.c. in the right flank with 3×10^6 cells suspended in 100 ml serum-free media. Seven days after implantation mice were randomized to treatment groups that received either MnBuOE (0.6 mg/kg loading dose followed by t.i.w. 0.3 mg/kg (loading/3× weekly maintenance) MnBuOE or an equivalent volume of saline. Tumors were measured daily with calipers and the volume was calculated using the equation V=(A^2×B×π)/6, where A is the shortest diameter and B is the longest diameter. As tumors reached 200 mm^3, they randomized into radiation treatment groups consisting of three daily fractions of radiation (6, 9, 12, 15 or 17 Gy/fraction) administered on three consecutive days. Cisplatin (6 mg/kg; APP pharmaceuticals, Schaumberg, IL) was injected intraperitoneally four hours prior to the first radiation fraction. […]

[5] = test system: normal tissue injury following RT+cisplatin
Method: Mice were treated with 1×9Gy+6 mg/kg cisplatin.
(§3) A collimating cone that produced a 15 mm×40 mm radiation field was used to target the radiation beam to the salivary gland and oral cavity. The RT field included all major and minor salivary glands (located primarily in the neck region of mice), and the oral mucosa, including glands of the cheeks, lips and tongue. The target tissues were localized within the radiation field with a source-to-subject distance of 30.76 cm, using fluoroscopy at 40 kVp and 2.5 mA with a 2 mm Al filter. […] Control mice were anesthetized but not imaged fluoroscopically or irradiated.
Mucositis evaluation using fluorescence molecular tomography: As reported previously, we used ProSense 750EX (Perkin Elmer, Waltham, MA) to detect mucositis. ProSense 750EX is a near-infrared (NIR) imaging agent that is cleaved by cathepsins, a family of enzymes that are expressed during inflammation, (17). Mice were injected intravenously with 100 μL ProSense 750EX. Twenty-four hours after injection, mice were anesthetized via isoflurane and imaged using the Visen FMT 2500LX (Perkin Elmer). The ProSense 750EX signal was quantified using TrueQuant software (Perkin Elmer Life and Analytical Sciences, Downers Grove, IL).

cognitive function = details: eight subjects, before vs after concurrent chemoradiation (8 weeks)
Method: as §1
Cognitive testing included Hopkins Verbal Learning Test-Revised (HVLT-R), Trails Making A and B Tests, and Controlled Oral Wood Association Test (COWA). […] This is notable because these are the primary cognitive tests that reveal poorer performance in multiple brain mestastases patients after whole brain radiation therapy.

[6] = in vivo, 1.5 mg/kg
Description: The magnitude of such oxidative modification is directly related to the levels of major reactive species involved in the process: H2O2 and MnBuOE.

[7] = test system: leukocyte-endothelial cell interactions; details: for Effect, repeated measures ANOVA of shear rates / Effect, repeated measures ANOVA of vessel diameter / Effect, repeated measures ANOVA of blood velocity: vs baseline (saline)
Method: as §2, §3
Mice were anesthetized with 80/8 mg/kg ketamine/xylazine mixture. Acridine orange (Sigma-Aldrich, St. Louis, MO) was injected intravenously (100 μl of 0.1% acridine orange in saline). The ventral surface of the tongue was placed on a glass cover slip before mounting the mouse onto a Zeiss Observer. Z1 (Carl Zeiss A G, Oberkochen, Germany) inverted microscope equipped with Zeiss Filter Set 38.
Fluorescent excitation was performed at 470 nm, and video was obtained at 525 nm using a 40× objective. Two separate regions with at least four veins in the […] range were identified, and a 60-120 second long video at 5 frames-per-second was obtained using Zen Imaging Software (Carl Zeiss A G, Oberkochen, Germany). Mice were kept warm while anesthetized using a heated stage.
Leukocyte-endothelial cell interaction analysis: All video analysis was performed in a blinded fashion. Rolling leukocytes were defined as cells that marginated along the vessel wall and were clearly dissociated from the bulk blood flow. Four vessels were analyzed per mouse. Leukocyte counting was repeated in triplicate for each vessel and averaged to obtain the flux of rolling leukocytes (Frolling). Vessel diameter (D) and the velocity of at least one free-flowing leukocyte(s) (VL) were also measured. A pseudo shear rate (gs) was also calculated for each vessel as: gs=8VL/D. These methods have been described previously. (18)

FaDu tumors = details: MnBuOE 1.5 mg/kg b.i.d.; five fractions of radiation (5-10 Gy/fraction); previous work (13); cited from earlier work

Description for mucositis: Animals: For normal tissue studies, six-to-eight week-old female C57B1/6 mice were used (Jackson Laboratory, Bar Harbor, ME). […] Mice were group housed in a barrier facility and allowed to acclimate to their new environment for at least one week before experiments.
Mucositis evaluation using fluorescence molecular tomography: As reported previously, we used ProSense 750EX (Perkin Elmer, Waltham, MA) to detect mucositis. […] The ProSense 750EX signal was quantified using TrueQuant software (Perkin Elmer Life and Analytical Sciences, Downers Grove, IL).

Cn1nnc2c(C(N)=O)ncn2c1=O [TMZ, 8-Carbamoyl-3-methylimidazol[5,1-d]-1,2,3,5-tetrazine-4-(3H)-one]
patients who developed platelets below 100,000 (platelet count; temozolomide + radiation without BMX-001, n=20): 9 out of 20
Grade 3/4 non-hematological toxicity: Fatigue [1]: 7%
Grade 3/4 non-hematological toxicity: infection [1]: 3%
Grade 3/4 non-hematological toxicity: nausea and vomiting with a 5HT3-RA [1]: < 1%
Grade 3/4 non-hematological toxicity: other constitutional symptoms [1]: 2%
Grade 3/4 non-hematological toxicity: rash and dermatologic side effects [1]: 1%
Grade 3/4 non-hematological toxicity: vision [1]: 1%
Non-hematological grade 2 toxicity: Fatigue [1]: 26%
Non-hematological grade 2 toxicity: infection [1]: 1%
Non-hematological grade 2 toxicity: nausea and vomiting [1]: 13%
Non-hematological grade 2 toxicity: other constitutional symptoms [1]: 7%
Non-hematological grade 2 toxicity: rash and dermatologic side effects [1]: 9%
Non-hematological grade 2 toxicity: vision [1]: 14%
bioavailable [2]: approximately 100%

N.N.[Cl][Pt][Cl] [cisplatin]
stability of reconstituted solution [3]: 20 h

manganese butoxyethyl pyridyl porphyrin [BMX-001]
patients who developed platelet counts below 100,000 (platelet count; BMX-001+temozolomide + radiation, loading doses 7 mg to 28 mg/subject, N=9): None of the nine
stimulated salivation (xerostomia) (xerostomia): significant (p<0.05) decreases
GSH/GSSG lower than the 0 Gy MnBuOE tongue levels (GSH/GSSG): 4%
Kaplan-Meier analysis (time to tripling of tumor volume), MnBuOE vs saline treated mice ([4]; 0.6/0.3 mg/kg, at any radiation dose): no significant differences
slope of the dose response curve of tumor inhibition (AUC of dynamic treatment effect curves), MnBuOE vs control arm ([4]; p-value=0.47): no significant difference
NIR signal (mucositis) ([5]; 1×9 Gy + 6 mg/kg cisplatin, MnBuOE 0.6 mg/kg loading, t.i.w. 0.3 mg/kg for five weeks, vs saline plus RT+cisplatin): significantly less NIR signal
xerostomia (saliva production) ([5]; 10, 11 and 12 weeks, MnBuOE for the first five weeks after RT+cisplatin, data not shown): trend towards reduced xerostomia
body weight ([5]; 10 weeks post-RT+cisplatin, MnBuOE 0.6/0.3 mg/kg, vs unirradiated control mice): not significantly different
long-term ulcerations and moist desquamation in the irradiated area ([5]; RT+cisplatin, MnBuOE vs saline): lessened
Trails Making B Test (cognitive function): faster scores
performance on Hopkins Verbal Learning Test-Revised (HVLT-R) (cognitive function; loading 7-28 mg, half dose twice a week): no degradation of performance
MnBuOE concentration in the tumor [6]: 1.5 to 2 µM
Effect, repeated measures ANOVA of shear rates ([7]; MnBuOE + RT (9 Gy)): −0.83
Effect, repeated measures ANOVA of vessel diameter ([7]; MnBuOE + RT (9 Gy)): 0.002
Effect, repeated measures ANOVA of blood velocity ([7]; MnBuOE + RT (9 Gy), 24 hours post-RT): 0.01
Effect, repeated measures ANOVA of shear rates ([7]; MnBuOE alone): −20.88
Effect, repeated measures ANOVA of vessel diameter ([7]; MnBuOE alone): 0.009
Effect, repeated measures ANOVA of blood velocity ([7]; MnBuOE alone, 24 hours post sham RT): −0.00
leukocyte rolling ([7]; MnBuOE treatment alone): without increasing leukocyte rolling
mean number of rolling leukocytes ([7]; combination of 0.2/0.1 MnBuOE and RT, 24 hours post-RT): decreases
dose-modifying effect (TCD50 curve) (FaDu tumors): 1.3
NIR signal (mucositis signal) (mucositis; day 11 post-RT, 9 Gy, 2/1 mg/kg MnBuOE s.c. (loading/t.i.w. maintenance), vs 0 Gy control): significantly increased
NIR signal (mucositis signal) (mucositis; unirradiated mice, 2/1 mg/kg MnBuOE): did not show an appreciable NIR signal
